Results reported in patent publication US20120220562A1, “Anti-Viral Compounds” (ABBOTT LABAORATORIES, priority 2011, published 2012).

What follows are compounds tested on HCV 1b-Con1 replicon (assay: HCV 1b-Con1 replicon assay in the presence of 5% FBS). Conditions: Hepatitis C virus.
Type: cell-based

| SMILES | EC50 |
| --- | --- |
| COC(=O)N[C@H](C(=O)N1CCC[C@H]1c1nc2cc(F)c([C@H]3CC[C@H](c4cc5[nH]c([C@@H]6CCCN6C(=O)[C@@H](NC(=O)OC)C(C)C)nc5cc4F)N3c3cc(F)c(N4CC(C)CC(C)C4)c(F)c3)cc2[nH]1)C(C)C (stereo partly drawn) [Example 2.16, methyl {(2S)-1-[(2S)-2-{5-[(5R)-1-[4-(3,5-dimethylpiperidin-1-yl)-3,5-difluorophenyl]-5-{6-fluoro-2-[(2S)-1-{(2S)-2-[(methoxycarbonyl)amino]-3-methylbutanoyl}pyrrolidin-2-yl]-1H-benzimidazol-5-yl}pyrrolidin-2-yl]-6-fluoro-1H-benzimidazol-2-yl}pyrrolidin-1-yl]-3-methyl-1-oxobutan-2-yl}carbamate] | < 0.1 nM |
| COC(=O)N[C@H](C(=O)N1CCC[C@H]1c1nc2cc([C@H]3CC[C@H](c4ccc5[nH]c(C6CCCC6)nc5c4)N3c3cc(F)c(N4CCC(c5ccccc5)CC4)c(F)c3)ccc2[nH]1)C(C)C [Example 11.2, methyl {(2S)-1-[(2S)-2-(5-{(2R,5R)-5-(2-cyclopentyl-1H-benzimidazol-5-yl)-1-[3,5-difluoro-4-(4-phenylpiperidin-1-yl)phenyl]pyrrolidin-2-yl}-1H-benzimidazol-2-yl)pyrrolidin-1-yl]-3-methyl-1-oxobutan-2-yl}carbamate] | < 0.1 nM |
| COC(=O)N[C@H](C(=O)N1CCC[C@H]1c1nc2cc([C@H]3CC[C@@H](c4cc5[nH]c([C@@H]6CCCN6C(=O)[C@@H](NC(=O)OC)C(C)C)nc5cc4F)N3c3ccc(C(C)(C)C)cc3)c(F)cc2[nH]1)C(C)C [Example 6.2, methyl {(2S)-1-[(2S)-2-{5-[(2R,5S)-1-(4-tert-butylphenyl)-5-{5-fluoro-2-[(2S)-1-(2S)-2-[(methoxycarbonyl)amino]-3-methylbutanoylpyrrolidin-2-yl]-1H-benzimidazol-6-yl}pyrrolidin-2-yl]-6-fluoro-1H-benzimidazol-2-yl}pyrrolidin-1-yl]-3-methyl-1-oxobutan-2-yl}carbamate] | < 0.1 nM |
| COC(=O)N[C@H](C(=O)N1CCC[C@H]1c1nc2cc([C@H]3CC[C@H](c4ccc5[nH]c([C@@H]6CCCN6C(=O)[C@@H](NC(=O)OC)C(C)C)nc5c4)N3c3cc(F)c(N4CCC(C(C)=O)(c5ccccc5)CC4)c(F)c3)ccc2[nH]1)C(C)C [Example 4.17, methyl {(2S)-1-[(2S)-2-{5-[(2R,5R)-1-[4-(4-acetyl-4-phenylpiperidin-1-yl)-3,5-difluorophenyl]-5-{2-[(2S)-1-{(2S)-2-[(methoxycarbonyl)amino]-3-methylbutanoyl}pyrrolidin-2-yl]-1H-benzimidazol-5-yl}pyrrolidin-2-yl]-1H-benzimidazol-2-yl}pyrrolidin-1-yl]-3-methyl-1-oxobutan-2-yl}carbamate] | < 0.1 nM |
| COC(=O)N[C@H](C(=O)N1CCC[C@H]1c1nc2cc([C@H]3CC[C@H](c4ccc5[nH]c([C@@H]6CCCN6C(=O)[C@@H](NC(=O)OC)C(C)C)nc5c4)N3c3ccc(Cl)cc3)ccc2[nH]1)C(C)C [Example 3.4, methyl {(2S)-1-[(2S)-2-{5-[(2R,5R)-1-(4-chlorophenyl)-5-{2-[(2S)-1-{(2S)-2-[(methoxycarbonyl)amino]-3-methylbutanoyl}pyrrolidin-2-yl]-1H-benzimidazol-5-yl}pyrrolidin-2-yl]-1H-benzimidazol-2-yl}pyrrolidin-1-yl]-3-methyl-1-oxobutan-2-yl}carbamate] | < 0.1 nM |
| COC(=O)N[C@H](C(=O)N1CCC[C@H]1c1ncc(-c2cccc(C3(c4cccc(-c5cnc([C@@H]6CCCN6C(=O)[C@@H](NC(=O)OC)C(C)C)[nH]5)c4)CN(c4ccccc4)C3)c2)[nH]1)C(C)C [Example 12.2, methyl {(2S)-1-[(2S)-2-(5-{3-[3-(3-{2-[(2S)-1-{(2S)-2-[(methoxycarbonyl)amino]-3-methylbutanoyl}pyrrolidin-2-yl]-1H-imidazol-5-yl}phenyl)-1-phenylazetidin-3-yl]phenyl}-1H-imidazol-2-yl)pyrrolidin-1-yl]-3-methyl-1-oxobutan-2-yl}carbamate] | 1 to 10 nM |
| COC(=O)N[C@H](C(=O)N1CCC[C@H]1c1nc2cc([C@@H]3CC[C@@H](c4ccc5[nH]c([C@@H]6CCCN6C(=O)[C@@H](NC(=O)OC)[C@@H](C)OC)nc5c4)N3c3ccc(C4CC4)cc3)ccc2[nH]1)[C@@H](C)OC [Example 4.14, methyl {(2S,3R)-1-[(2S)-2-{5-[(2S,55)-1-(4-cyclopropylphenyl)-5-(2-{(2S)-1-[N-(methoxycarbonyl)-O-methyl-L-threonyl]pyrrolidin-2-yl}-1H-benzimidazol-5-yl)pyrrolidin-2-yl]-1H-benzimidazol-2-yl}pyrrolidin-1-yl]-3-methoxy-1-oxobutan-2-yl}carbamate] | < 0.1 nM |
| COC(=O)N[C@H](C(=O)N1C(c2nc3cc([C@H]4CC[C@H](c5ccc6[nH]c([C@@H]7C[C@@H]8CCC[C@@H]8N7C(=O)[C@@H](NC(=O)OC)C(C)C)nc6c5)N4c4cc(F)c(N5CCCCC5)c(F)c4)ccc3[nH]2)C[C@@H]2CCC[C@@H]21)C(C)C (stereo partly drawn) [Example 4.18, methyl {(2S)-1-[(2S,3aS,6aS)-2-{5-[(2R,5R)-1-[3,5-difluoro-4-(piperidin-1-yl)phenyl]-5-{2-[(3aS,6aS)-1-{(2S)-2-[(methoxycarbonyl)amino]-3-methylbutanoyl}octahydrocyclopenta[b]pyrrol-2-yl]-1H-benzimidazol-5-yl}pyrrolidin-2-yl]-1H-benzimidazol-2-yl}hexahydrocyclopenta[b]pyrrol-1(2H)-yl]-3-methyl-1-oxobutan-2-yl}carbamate] | < 0.1 nM |
| COC(=O)N[C@H](C(=O)N1CCC[C@H]1c1nc2cc([C@H]3CC[C@H](c4ccc5[nH]c([C@@H]6CCCN6C(=O)[C@@H](NC(=O)OC)C(C)C)nc5c4)N3c3cc(F)c(N4CCC(C(C)(C)C)CC4)c(F)c3)ccc2[nH]1)C(C)C [Example 5.9, methyl {(2S)-1-[(2S)-2-{5-[(2R,5R)-1-[4-(4-tert-butylpiperidin-1-yl)-3,5-difluorophenyl]-5-{2-[(2S)-1-{(2S)-2-[(methoxycarbonyl)amino]-3-methylbutanoyl}pyrrolidin-2-yl]-1H-benzimidazol-5-yl}pyrrolidin-2-yl]-1H-benzimidazol-2-yl}pyrrolidin-1-yl]-3-methyl-1-oxobutan-2-yl}carbamate] | < 0.1 nM |
| COC(=O)N[C@H](C(=O)N1CCC[C@H]1c1nc2ccc([C@H]3CC[C@H](c4ccc5nc([C@@H]6CCCN6C(=O)[C@@H](NC(=O)OC)C(C)C)[nH]c5c4)N3c3cc(F)c(N4CCC(F)(c5ccccc5)CC4)c(F)c3)cc2[nH]1)C(C)C [Example 4.35, methyl {(2S)-1-[(2S)-2-{6-[(2R,5R)-1-[3,5-difluoro-4-(4-fluoro-4-phenylpiperidin-1-yl)phenyl]-5-{2-[(2S)-1-{(2S)-2-[(methoxycarbonyl)amino]-3-methylbutanoyl}pyrrolidin-2-yl]-1H-benzimidazol-6-yl}pyrrolidin-2-yl]-1H-benzimidazol-2-yl}pyrrolidin-1-yl]-3-methyl-1-oxobutan-2-yl}carbamate] | < 0.1 nM |
| COC(=O)N[C@H](C(=O)N1CCC[C@H]1c1nc2cc([C@H]3CC[C@H](c4ccc5[nH]c([C@@H]6CCCN6C(=O)[C@@H](NC(=O)OC)C(C)C)nc5c4)N3c3cc(F)c(N4CCC(C(C)C)CC4)c(F)c3)ccc2[nH]1)C(C)C [Example 4.22, methyl {(2S)-1-[(2S)-2-{5-[(2R,5R)-1-{3,5-difluoro-4-[4-(propan-2-yl)piperidin-1-yl]phenyl}-5-{2-[(2S)-1-{(2S)-2-[(methoxycarbonyl)amino]-3-methylbutanoyl}pyrrolidin-2-yl]-1H-benzimidazol-5-yl}pyrrolidin-2-yl]-1H-benzimidazol-2-yl}pyrrolidin-1-yl]-3-methyl-1-oxobutan-2-yl}carbamate] | < 0.1 nM |
| COC(=O)N[C@H](C(=O)N1CCC[C@H]1c1nc2cc([C@H]3CC[C@H](c4ccc5[nH]c([C@@H]6CCCN6C(=O)[C@@H](NC(=O)OC)C(C)C)nc5c4)N3c3ccc(-c4ccccn4)cc3)ccc2[nH]1)C(C)C [Example 3.1, methyl {(2S)-1-[(2S)-2-(5-{(2R,5R)-5-{2-[(2S)-1-{(2S)-2-[(methoxycarbonyl)amino]-3-methylbutanoyl}pyrrolidin-2-yl]-1H-benzimidazol-5-yl}-1-[4-(pyridin-2-yl)phenyl]pyrrolidin-2-yl}-1H-benzimidazol-2-yl)pyrrolidin-1-yl]-3-methyl-1-oxobutan-2-yl}carbamate] | < 0.1 nM |
| COC(=O)N[C@H](C(=O)N1CCC[C@H]1c1nc2cc([C@H]3CC[C@H](c4cc5nc([C@@H]6CCCN6C(=O)[C@@H](NC(=O)OC)[C@@H](C)OC)[nH]c5cc4F)N3c3cc(F)c(N4CCC(C(C)(C)C)CC4)c(F)c3)c(F)cc2[nH]1)[C@@H](C)OC [Example 6.13, methyl {(2S,3R)-1-[(2S)-2-{5-[(2R,5R)-1-[4-(4-tert-butylpiperidin-1-yl)-3,5-difluorophenyl]-5-(6-fluoro-2-{(2S)-1-[N-(methoxycarbonyl)-O-methyl-L-threonyl]pyrrolidin-2-yl}-1H-benzimidazol-5-yl)pyrrolidin-2-yl]-6-fluoro-1H-benzimidazol-2-yl}pyrrolidin-1-yl]-3-methoxy-1-oxobutan-2-yl}carbamate] | < 0.1 nM |
| COC(=O)N[C@H](C(=O)N1CCC[C@H]1c1nc2cc([C@H]3CC[C@H](c4ccc5[nH]c([C@@H]6CCCN6C(=O)[C@@H](NC(=O)OC)C(C)C)nc5c4)N3c3cc(F)c(N4CCC5(CCCCC5)CC4)c(F)c3)ccc2[nH]1)C(C)C [Example 5.12, methyl {(2S)-1-[(2S)-2-{5-[(2R,5R)-1-[4-(3-azaspiro[5.5]undec-3-yl)-3,5-difluorophenyl]-5-{2-[(2S)-1-{(2S)-2-[(methoxycarbonyl)amino]-3-methylbutanoyl}pyrrolidin-2-yl]-1H-benzimidazol-5-yl}pyrrolidin-2-yl]-1H-benzimidazol-2-yl}pyrrolidin-1-yl]-3-methyl-1-oxobutan-2-yl}carbamate] | < 0.1 nM |
